pIC50: −log10 of the molar value.
Biological target: T1, 15-PGDH de type 1 (Homo sapiens, UniProt P15428)
T1 sequence (P15428 1-266): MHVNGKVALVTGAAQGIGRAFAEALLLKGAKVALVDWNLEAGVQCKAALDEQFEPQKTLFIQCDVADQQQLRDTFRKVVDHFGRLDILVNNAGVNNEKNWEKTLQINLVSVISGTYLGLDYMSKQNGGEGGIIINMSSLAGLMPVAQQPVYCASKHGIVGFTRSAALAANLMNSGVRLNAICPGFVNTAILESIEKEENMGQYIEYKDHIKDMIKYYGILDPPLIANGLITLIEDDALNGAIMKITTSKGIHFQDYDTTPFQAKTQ
Assay: Test on 15-PGDH type 1: spectrophotometric enzyme inhibition, NADH formation at 340 nm with PGE2 and β-NAD
Format: biochemical
Details: concentration reducing the enzymatic activity of 15-PGDH by 50%; Tris 100 mM pH 7,4, 37°C, 50 µM Prostaglandine E2, 1,5 mM β-NAD
Experimental: L'enzyme 15-PGDH est obtenue comme décrit dans la demande FR 02/05067 déposée au nom de L'Oréal, en suspension dans un milieu adapté à une concentration de 0,3 mg/mL puis bloquée à - 80°C. Pour les besoins du test, cette suspension est décongelée et stockée dans de la glace.
Par ailleurs on prépare un tampon Tris 100 mM, pH = 7,4, contenant 0,1 mM de dithiothréitol (D5545, Sigma-Aldrich, L'isle D'Abeau Chesne, BP 701, 38297, Saint Quentin Fallavier), 1,5 mM de β-NAD (N6522, Sigma-Aldrich, L'isle D'Abeau Chesne, BP 701, 38297, Saint Quentin Fallavier), 50 µM de Prostaglandine E2 (P4172, Sigma-Aldrich, L'isle D'Abeau Chesne, BP 701, 38297, Saint Quentin Fallavier).
Dans la cuve d'un spectrophotomètre (Perkin-Elmer, Lambda 2) thermostaté à 37°C, dont la longueur d'onde de mesure est réglée à 340 nm, sont introduits 0,965 ml de ce tampon (préalablement porté à 37°C). 0,035 mL de suspension enzymatique à 37°C sont introduits dans la cuve concomitamment à l'enregistrement (correspondant à une augmentation de la densité optique à 340 nm). La vitesse maximale de réaction est relevée. […]

`O=C1NC(=O)C(Cc2ccccc2Oc2ccc(Cl)cc2)S1` (stereo not shown) [compound 1] gave a pIC50 of 5.66.

— EP1738740A2, “Use of benzyl-1,3-thiazolidine-2,4-dione compounds for favouring and/or inducing and/or stimulating the pigmentation of keratinic materials and/or for limiting their depigmentation and/or their bleaching” (L'Oreal, priority 2005, dated 2007)
